Read-outs that look alike come from different tables or passages of the source.
Target: CETP (Homo sapiens (Human), UniProt P11597)
Test: Scintillation Proximity Assay (SPA) for CETP activity
Assay type: biochemical
Experimental: Protocol: Scintillation Proximity Assay (SPA) for CETP Activity
First, low density lipoprotein (LDL) (Meridian) was biotinylated by incubating LDL with biotin for 1 hour on ice, after which it was dialyzed to remove free biotin. Then compounds at varying concentrations were incubated with 15 nM CETP (reagent production group, In Vitro Pharmacology, MRL Rahway) and 50 ug/ml of the biotinylated LDL in 50 mM HEPES, 150 mM NaCl, pH 7.4, for 1 hour at 37° C. The reaction was started by adding 3H-cholesterol ester high density lipoprotein (HDL) (American Radiochemicals Corp) at a concentration of ˜0.6 nM. The reaction proceeded for 2 hours at 37° C., after which time it was quenched by the addition of 12% acetic acid. PVT streptavadin-coated scintillation proximity beads, which had been brought to room temperature, were then added at a concentration of 4 mg/ml. The assay was then mixed and counted after one half hour in a Microbeta plate reader.

CETP, sequence (P11597 18-493): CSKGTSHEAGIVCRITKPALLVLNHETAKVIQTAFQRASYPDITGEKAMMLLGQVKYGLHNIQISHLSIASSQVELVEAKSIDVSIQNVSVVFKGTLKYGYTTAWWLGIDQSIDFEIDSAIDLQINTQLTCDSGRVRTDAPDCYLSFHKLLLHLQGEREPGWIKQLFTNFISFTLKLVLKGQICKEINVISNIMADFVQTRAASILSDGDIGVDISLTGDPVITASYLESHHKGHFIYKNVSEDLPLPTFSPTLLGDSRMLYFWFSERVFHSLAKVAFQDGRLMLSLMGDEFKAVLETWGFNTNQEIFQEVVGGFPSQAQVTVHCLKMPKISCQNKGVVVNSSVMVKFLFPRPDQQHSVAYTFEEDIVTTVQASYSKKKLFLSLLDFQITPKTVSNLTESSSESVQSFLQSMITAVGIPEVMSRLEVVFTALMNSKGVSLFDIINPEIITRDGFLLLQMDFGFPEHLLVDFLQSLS

IC50 (Table 1, read-out: IC50) | IC50 (read-out: SPA IC50) | SMILES | also measured
461 nM |  | O[C@H](CN1c2ccccc2N(Cc2ccsc2)C[C@H]1c1cccc(C(F)(F)F)c1)C(F)(F)F [Example 38, (R)-3-((R)-4-(thiophenyl-3-ylmethyl)-2-(3-(trifluoromethyl)phenyl)3,4-dihydroquinoxalin-1(2H)-yl)-1,1,1-trifluoropropan-2-ol] | 
428 nM |  | Cc1ccccc1CN1C[C@@H](c2cccc(C(F)(F)F)c2)N(C[C@@H](O)C(F)(F)F)c2ccccc21 [Example 33, (R)-3-((R)-4-(2-methylbenzyl)-2-(3-(trifluoromethyl)phenyl)-3,4-dihydroquinoxalin-1(2H)-yl)-1,1,1-trifluoro propan-2-ol] | 
548 nM |  | O[C@H](CN1c2ccccc2N(Cc2ccc(Cl)cc2)C[C@H]1c1cccc(C(F)(F)F)c1)C(F)(F)F [Example 39, (2R)-3-(4-(4-chlorobenzyl)-2-(3-(trifluoromethyl)phenyl)-3,4-dihydroquinoxalin-1(2H)-yl)-1,1,1-trifluoropropan-2-ol] | 
 | 78 nM | COc1cccc([C@@H]2CN(Cc3cccc(OC(F)(F)F)c3)c3ccccc3N2C[C@@H](O)C(F)(F)F)c1 [Example 20] | 
1160 nM |  | O[C@H](CN1c2ccccc2N(Cc2c(Cl)cccc2Cl)C[C@H]1c1cccc(C(F)(F)F)c1)C(F)(F)F [Example 35, (R)-3-((R)-4-(2,6-dichlorobenzyl)-2-(3-(trifluoromethyl)phenyl)-3,4-dihydroquinoxalin-1(2H)-yl)-1,1,1-trifluoro propan-2-ol] | 
57.1 nM |  | O[C@H](CN1c2ccccc2N(Cc2cccc(C(F)(F)F)c2)C[C@H]1c1cccc(C(F)(F)F)c1)C(F)(F)F [Example 40, (2R)-1,1,1-trifluoro-3-(4-(3-(trifluoromethyl)benzyl)-2-(3-(trifluoromethyl)phenyl)-3,4-dihydroquinoxalin-1(2H)-yl)propan-2-ol] | 
169 nM |  | O[C@H](CN1c2ccccc2N(Cc2cccc(Cl)c2Cl)C[C@H]1c1cccc(C(F)(F)F)c1)C(F)(F)F [Example 34, (R)-3-((R)-4-(2,3-dichlorobenzyl)-2-(3-(trifluoromethyl)phenyl)-3,4-dihydroquinoxalin-1(2H)-yl)-1,1,1-trifluoro propan-2-ol] | 
45.1 nM |  | CCc1cc(CN2C[C@@H](c3cccc(C(F)(F)F)c3)N(C[C@@H](O)C(F)(F)F)c3ccccc32)ccc1Cl [Example 42, (2R)-3-(4-(4-chloro-3-ethylbenzyl)-2-(3-(trifluoromethyl)phenyl)-3,4-dihydroquinoxalin-1(2H)-yl)-1,1,1-trifluoropropan-2-ol] | 
 | 9 nM | O[C@H](CN1c2ccccc2N(Cc2cccc(OC(F)(F)F)c2)C[C@H]1c1cccc(C(F)(F)F)c1)C(F)(F)F [Example 10] | 

Continued, compound first:

SMILES | IC50 (Table 1, read-out: IC50) | IC50 (read-out: SPA IC50) | also measured
O[C@H](CN1c2ccccc2N(Cc2cccc(Cl)c2)C[C@H]1c1ccccc1)C(F)(F)F [Example 30, (R)-3-((R)-4-(3-chlorobenzyl)-2-phenyl-3,4-dihydroquinoxalin-1(2H)-yl)-1,1,1-trifluoropropan-2-ol] | 1400 nM |  | 
O[C@H](CN1c2ccccc2N(Cc2cccc(OC(F)(F)F)c2)C[C@H]1c1ccc(C(F)(F)F)nc1)C(F)(F)F [Example 26] |  | 24 nM | 
O[C@H](CN1c2ccccc2N(Cc2ccnc(N3CCOCC3)c2)C[C@H]1c1cccc(C(F)(F)F)c1)C(F)(F)F [Example 62] |  |  | IC50 (Table 2, read-out: IC50 SPA): 326 nM
COc1cc2ccc([C@@H]3CN(Cc4cccc(OC(F)(F)F)c4)c4ccccc4N3C[C@@H](O)C(F)(F)F)cc2cc1OC [Example 50] | 193 nM |  | 
O[C@H](CN1c2ccccc2N(CC2=CCCCC2)C[C@H]1c1cccc(OC(F)(F)F)c1)C(F)(F)F [Example 66] |  |  | IC50 (Table 2, read-out: IC50 SPA): 8 nM
COC(=O)c1cccc([C@@H]2CN(Cc3cccc(OC(F)(F)F)c3)c3ccccc3N2C[C@@H](O)C(F)(F)F)c1 [Example 16] |  | 27 nM | 
C[C@H](c1cccc(C(F)(F)F)c1)N1C[C@@H](c2cccc(C(F)(F)F)c2)N(C[C@@H](O)C(F)(F)F)c2ccccc21 [Example 13, (R)-1,1,1-trifluoro-3-((R)-2-(3-(trifluoromethyl)phenyl-4-((R)-1-(3-trifluoromethyl)phenyl)ethyl)-3,4-dihydroquinoxalin-1(2H)-yl)propan-2-ol] |  | 10 nM | 
O[C@H](CN1c2ccccc2N(Cc2cc(Cl)cc(Cl)c2)C[C@H]1c1ccccc1)C(F)(F)F [Example 31, (R)-3-((R)-4-(3,5-dichlorobenzyl)-2-phenyl-3,4-dihydroquinoxalin-1(2H)-yl)-1,1,1-trifluoropropan-2-ol] | 2760 nM |  | 
Cc1cccc(CN2C[C@@H](c3cccc(C(F)(F)F)c3)N(C[C@@H](O)C(F)(F)F)c3ccccc32)n1 [Example 44] | 460 nM |  | 
N#Cc1cccc([C@@H]2CN(Cc3cccc(OC(F)(F)F)c3)c3ccccc3N2C[C@@H](O)C(F)(F)F)c1 [Example 24] |  | 98 nM | 
O[C@H](CN1c2ccccc2N(Cc2cccc(OC(F)(F)F)c2)CC1c1cccc(-c2ccccc2)c1)C(F)(F)F (stereo partly shown) [Example 69] |  |  | IC50 (Table 2, read-out: IC50 SPA): 163 nM
O[C@H](CN1c2ccccc2N(CC2CCOCC2)C[C@H]1c1cccc(OC(F)(F)F)c1)C(F)(F)F [Example 67] |  |  | IC50 (Table 2, read-out: IC50 SPA): 29 nM
C[C@@H](c1ccccc1)N1C[C@@H](c2cccc(C(F)(F)F)c2)N(C[C@@H](O)C(F)(F)F)c2ccccc21 [Example 14] |  | 1460 nM | 
O[C@H](CN1c2ccccc2N(Cc2cccc(OC(F)(F)F)c2)C[C@H]1c1ccc(Cl)cc1)C(F)(F)F [Example 49] | 20 nM |  | 
O[C@H](CN1c2ccccc2N(Cc2cccc(OC(F)F)c2)C[C@H]1c1cccc(C(F)(F)F)c1)C(F)(F)F [Example 64] |  |  | IC50 (Table 2, read-out: IC50 SPA): 16 nM
CS(=O)(=O)c1ccc([C@@H]2CN(Cc3cccc(OC(F)(F)F)c3)c3ccccc3N2C[C@@H](O)C(F)(F)F)cc1 [Example 23] |  | 96 nM | 
O[C@H](CN1c2c(ccc(F)c2F)N(Cc2cccc(OC(F)(F)F)c2)CC1c1cccc(C(F)(F)F)c1)C(F)(F)F (stereo partly shown) [Example 65] |  |  | IC50 (Table 2, read-out: IC50 SPA): 157 nM
O[C@H](CN1c2ccccc2N(Cc2cccc(OC(F)(F)F)c2)C[C@H]1c1ccc(C(F)(F)F)cc1)C(F)(F)F [Example 11] |  | 4 nM | 
O[C@H](CN1c2ccccc2N(Cc2cccc(OC(F)(F)F)c2)C[C@H]1c1ccc2c(c1)OCCO2)C(F)(F)F [Example 51] | 209 nM |  | 
O[C@H](CN1c2ccccc2N(CC2CCCCC2)C[C@H]1c1cccc(C(F)(F)F)c1)C(F)(F)F [Example 37, (R)-3-((R)-4-(cyclohexylmethyl)-2-(3-(trifluoromethyl)phenyl)-3,4-dihydroquinoxalin-1(2H)-yl)-1,1,1-trifluoro propan-2-ol] | 1270 nM |  | 
CNC(=O)c1cccc(C2CN(Cc3cccc(OC(F)(F)F)c3)c3ccccc3N2C[C@@H](O)C(F)(F)F)c1 (stereo partly drawn) [Example 19, N-methyl-3-{1-[(R)-3,3,3-trifluoro-2-hydroxypropyl]-4-[3-(trifluoro-methoxy)benzyl]-1,2,3,4-tetrahydroquinoxalin-2-yl}benzamide] |  | 90 nM | 
O[C@H](CN1c2ccccc2N(Cc2cccc(OC(F)(F)F)c2)C[C@H]1c1cccnc1)C(F)(F)F [Example 22] |  | 258 nM | 
O[C@H](CN1c2ccccc2N(Cc2cccc(OC(F)(F)F)c2)CC1c1ccc(-c2ccccc2)cc1)C(F)(F)F (stereo partly shown) [Example 68] |  |  | IC50 (Table 2, read-out: IC50 SPA): 25 nM
C[C@@H](c1cccc(C(F)(F)F)c1)N1C[C@@H](c2cccc(C(F)(F)F)c2)N(C[C@@H](O)C(F)(F)F)c2ccccc21 [Example 12] |  | 28 nM | 
COc1ccc([C@@H]2CN(Cc3cccc(OC(F)(F)F)c3)c3ccccc3N2C[C@@H](O)C(F)(F)F)cc1 [Example 54] | 69 nM |  | 

— US9126976B2 (Merck Sharp & Dohme Corp., priority 2011, dated 2015)
